Molecules are shown by their SMILES.

The target in one series is Cytochrome P450 3A4 (Homo sapiens, UniProt P08684). Put plainly: Inhibition of CYP3A4 (unknown origin) at >25 uM. It counts as ADME.
Series [1] is described as follows: Intrinsic clearance in human liver microsomes at 1 uM measured upto 30 mins by LC/MS analysis. It counts as ADME, Microsome. Particulars: read-out: CLH (converted); call rule not given here.
Series [2] is described as follows: Hepatic blood flow in Sprague-Dawley rat at 0.5 mg/kg, iv measured upto 24 hrs by LC-MS/MS analysis. Type of series: ADME, organism-based. Conditions: in vivo.
A further series concerns the target T1, Cytochrome P450 2C8 (Homo sapiens, UniProt P10632).
T1 sequence (P10632 whole entry): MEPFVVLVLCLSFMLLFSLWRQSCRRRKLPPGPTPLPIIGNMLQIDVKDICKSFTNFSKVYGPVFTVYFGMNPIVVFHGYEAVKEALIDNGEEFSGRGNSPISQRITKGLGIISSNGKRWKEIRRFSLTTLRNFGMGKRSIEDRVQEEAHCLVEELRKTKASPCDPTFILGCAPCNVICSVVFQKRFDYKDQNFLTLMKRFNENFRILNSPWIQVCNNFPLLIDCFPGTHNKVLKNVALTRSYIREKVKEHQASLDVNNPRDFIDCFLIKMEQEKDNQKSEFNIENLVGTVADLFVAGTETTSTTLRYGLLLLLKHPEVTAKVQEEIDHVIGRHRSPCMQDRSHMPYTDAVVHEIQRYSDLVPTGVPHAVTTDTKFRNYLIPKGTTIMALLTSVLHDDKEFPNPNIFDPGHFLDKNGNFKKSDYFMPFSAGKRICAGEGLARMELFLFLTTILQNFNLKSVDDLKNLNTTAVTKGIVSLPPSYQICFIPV
In words: Inhibition of CYP2C8 (unknown origin) at >25 uM. It counts as ADME.

Series [3] is described as follows: Metabolic stability in Sprague-Dawley rat liver microsomes assessed as compound oxidation at 5 uM measured upto 30 mins by HPLC/MS analysis. It counts as ADME, Microsome. Conditions: 0.5 h.
Series [4] is described as follows: Metabolic stability in Cynomolgus monkey liver microsomes assessed as compound oxidation at 5 uM measured upto 30 mins by HPLC/MS analysis. Type of series: ADME, Macaca fascicularis, Microsome. Particulars: 0.5 h.
Series [5] can be described thus: Metabolic stability in Cynomolgus monkey liver microsomes assessed as remaining parent compound at 5 uM measured upto 30 mins by HPLC/MS analysis. Type of series: ADME, Macaca fascicularis, Microsome. Conditions: 0.5 h.
The nature of series [6]: Oral bioavailability in Sprague-Dawley rat at 3 mg/kg measured upto 24 hrs by LC-MS/MS analysis. Conditions: in vivo. It counts as ADME, organism-based.
Series [7] is described as follows: Metabolic stability in Sprague-Dawley rat liver microsomes assessed as compound demethylation at 5 uM measured upto 30 mins by HPLC/MS analysis. It counts as ADME, Microsome. Particulars: 0.5 h.
Series [8] in a line: Metabolic stability in human liver microsomes assessed as remaining parent compound at 5 uM measured upto 30 mins by HPLC/MS analysis. It counts as ADME, Microsome. Particulars: liver microsomes, read-out: Stability.
A further series has as its target Cytochrome P450 2D6 (Homo sapiens, UniProt P10635). In words: Inhibition of CYP2D6 (unknown origin) at >25 uM. Type of series: ADME.
Series [9] in a line: AUC in Sprague-Dawley rat at 3 mg/kg, po measured upto 24 hrs by LC-MS/MS analysis. Type of series: ADME, organism-based. The arrangement: dose 3 mg/kg, time < 24 hrs, route po. Particulars: in vivo.
Series [10] in a line: Volume of distribution at steady state in Sprague-Dawley rat at 0.5 mg/kg, iv measured upto 24 hrs by LC-MS/MS analysis. Type of series: ADME, organism-based. Particulars: in vivo, iv, 0.5 mg/kg, 24 h.
Series [11] can be described thus: Metabolic stability in Sprague-Dawley rat liver microsomes assessed as remaining parent compound at 5 uM measured upto 30 mins by HPLC/MS analysis. Type of series: ADME, Microsome. Conditions: 0.5 h.
Series [12] can be described thus: Metabolic stability in human liver microsomes assessed as compound oxidation at 5 uM measured upto 30 mins by HPLC/MS analysis. Type of series: ADME, Microsome. Particulars: liver microsomes, read-out: Drug metabolism.
Series [13] addresses T2, Cyclin-dependent kinase 2 (Homo sapiens, UniProt P24941). Put plainly: Inhibition of CDK2 in human COV318 cells incubated for overnight in presence of human whole blood by HTRF assay. Type of series: cell-based.
The next series addresses Cytochrome P450 2C9 (Homo sapiens, UniProt P11712). Put plainly: Inhibition of CYP2C9 (unknown origin) at >25 uM. Type of series: ADME.
Series [14] is described as follows: Metabolic stability in Cynomolgus monkey liver microsomes assessed as compound demethylation at 5 uM measured upto 30 mins by HPLC/MS analysis. Type of series: ADME, Macaca fascicularis, Microsome. Particulars: 0.5 h.
In another series the target is T3, Cytochrome P450 2B6 (Homo sapiens, UniProt P20813).
T3 sequence (P20813 whole entry): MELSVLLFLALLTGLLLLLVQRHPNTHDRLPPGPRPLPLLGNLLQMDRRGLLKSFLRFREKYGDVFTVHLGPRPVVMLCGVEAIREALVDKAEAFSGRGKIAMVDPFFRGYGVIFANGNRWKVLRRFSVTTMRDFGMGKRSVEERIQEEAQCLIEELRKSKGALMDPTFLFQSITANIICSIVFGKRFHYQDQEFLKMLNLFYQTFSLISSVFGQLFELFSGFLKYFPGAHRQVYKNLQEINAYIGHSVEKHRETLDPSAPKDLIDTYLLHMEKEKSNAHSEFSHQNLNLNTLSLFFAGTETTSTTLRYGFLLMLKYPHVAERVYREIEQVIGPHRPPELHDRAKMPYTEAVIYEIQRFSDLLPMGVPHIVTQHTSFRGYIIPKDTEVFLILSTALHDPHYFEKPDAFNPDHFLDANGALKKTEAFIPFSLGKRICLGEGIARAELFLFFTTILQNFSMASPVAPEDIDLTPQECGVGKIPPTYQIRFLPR
Put plainly: Inhibition of CYP2B6 (unknown origin) at >25 uM. Type of series: ADME.

Another series addresses Cytochrome P450 2C19 (Homo sapiens, UniProt P33261). In words: Inhibition of CYP2C19 (unknown origin) at >25 uM. It counts as ADME.
A further series has as its target T4, Cytochrome P450 1A2 (Homo sapiens, UniProt P05177).
T4 sequence (P05177 whole entry): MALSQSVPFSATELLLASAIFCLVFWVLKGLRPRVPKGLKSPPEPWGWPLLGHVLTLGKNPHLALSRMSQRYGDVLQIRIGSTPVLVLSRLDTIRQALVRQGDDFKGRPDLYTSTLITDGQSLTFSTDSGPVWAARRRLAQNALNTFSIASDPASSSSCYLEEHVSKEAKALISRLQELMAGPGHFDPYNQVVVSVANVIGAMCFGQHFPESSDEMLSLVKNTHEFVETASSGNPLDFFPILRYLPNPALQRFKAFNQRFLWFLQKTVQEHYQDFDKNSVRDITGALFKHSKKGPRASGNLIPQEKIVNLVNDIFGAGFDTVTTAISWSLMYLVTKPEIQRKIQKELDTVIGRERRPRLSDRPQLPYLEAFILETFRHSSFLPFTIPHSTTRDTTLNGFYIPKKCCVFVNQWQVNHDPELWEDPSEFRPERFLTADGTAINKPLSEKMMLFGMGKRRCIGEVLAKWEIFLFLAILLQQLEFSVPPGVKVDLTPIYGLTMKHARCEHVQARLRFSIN
In words: Inhibition of CYP1A2 (unknown origin) at >25 uM. Type of series: ADME.

Series [15] can be described thus: Cmax in Sprague-Dawley rat at 3 mg/kg, po measured upto 24 hrs by LC-MS/MS analysis. Type of series: ADME, organism-based. The arrangement: dose 3 mg/kg, time < 24 hrs, route po. Particulars: in vivo.
Series [16] in a line: Metabolic stability in human liver microsomes assessed as compound demethylation at 5 uM measured upto 30 mins by HPLC/MS analysis. Particulars: 0.5 h. Type of series: ADME, Microsome.
Another series has as its target hERG (KCNH2) (Homo sapiens, UniProt Q12809). In words: Displacement of [3H]Dofetilide from human ERG at 10 uM incubated for 24 hrs by filter binding assay relative to control. Type of series: toxicity. Conditions: probe [3H]dofetilide.
The nature of series [17]: Solubility of compound. It counts as physicochemical.
Series [18] deals with T2, Cyclin-dependent kinase 2. Put plainly: Inhibition of CDK2 in human COV318 cells incubated for overnight in presence of phospho-Rb by HTRF assay. It counts as cell-based.
Series [19] has as its target Cyclin-dependent kinase 2/cyclin E1 (Homo sapiens, UniProt P24941). In words: Inhibition of recombinant human N-terminal GST-tagged full-length CDK2/Flag-tagged cyclinE1 expressed in baculovirus expression system using eIF4E-binding protein-1 peptide as substrate incubated for 1 hr in presence of ATP by HTRF assay.
Series [20] is filed under the species Homo sapiens. Put plainly: Selectivity ratio of IC50 for inhibition of CDK1 in human OVCAR3 cells to IC50 for inhibition of CDK2 in human COV318 cells. It counts as cell-based.
The species entered for series [21] is Homo sapiens. Put plainly: Selectivity ratio of IC50 for inhibition of CDK6/cyclin D1 (unknown origin) to IC50 for inhibition recombinant human N-terminal GST-tagged full-length CDK2/Flag-tagged cyclinE1 expressed in baculovirus expression system.
Series [22] has as its target Cyclin-dependent kinase 1 (Homo sapiens, UniProt P06493). Put plainly: Inhibition of CDK1 in human OVCAR3 cells incubated for 30 mins in presence of pNPM T199 by western blot analysis. It counts as cell-based, OVCAR-3.
Series [23] is filed under the species Homo sapiens. In words: Selectivity ratio of IC50 for inhibition of CDK4/cyclin D1 (unknown origin) to IC50 for inhibition recombinant human N-terminal GST-tagged full-length CDK2/Flag-tagged cyclinE1 expressed in baculovirus expression system.
For series [24], the species on record is Homo sapiens. In words: Selectivity ratio of IC50 for inhibition of CDK1/cyclin B (unknown origin) to IC50 for inhibition recombinant human N-terminal GST-tagged full-length CDK2/Flag-tagged cyclinE1 expressed in baculovirus expression system.

Sequence of Cytochrome P450 2D6 (P10635 whole entry): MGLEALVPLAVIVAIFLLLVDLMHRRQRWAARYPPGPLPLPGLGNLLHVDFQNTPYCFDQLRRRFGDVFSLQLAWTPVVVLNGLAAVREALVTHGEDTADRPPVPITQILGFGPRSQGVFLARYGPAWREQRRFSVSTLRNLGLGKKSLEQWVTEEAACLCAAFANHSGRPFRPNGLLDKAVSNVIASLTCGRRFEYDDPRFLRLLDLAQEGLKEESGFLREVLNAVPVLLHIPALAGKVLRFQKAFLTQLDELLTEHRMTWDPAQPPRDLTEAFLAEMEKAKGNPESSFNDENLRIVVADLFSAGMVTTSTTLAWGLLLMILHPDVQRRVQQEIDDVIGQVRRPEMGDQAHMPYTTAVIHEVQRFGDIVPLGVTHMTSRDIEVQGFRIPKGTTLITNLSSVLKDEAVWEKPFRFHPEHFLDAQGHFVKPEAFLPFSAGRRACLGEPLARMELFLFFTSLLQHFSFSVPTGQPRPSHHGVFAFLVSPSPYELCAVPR
Sequence of hERG (KCNH2) (Q12809 whole entry): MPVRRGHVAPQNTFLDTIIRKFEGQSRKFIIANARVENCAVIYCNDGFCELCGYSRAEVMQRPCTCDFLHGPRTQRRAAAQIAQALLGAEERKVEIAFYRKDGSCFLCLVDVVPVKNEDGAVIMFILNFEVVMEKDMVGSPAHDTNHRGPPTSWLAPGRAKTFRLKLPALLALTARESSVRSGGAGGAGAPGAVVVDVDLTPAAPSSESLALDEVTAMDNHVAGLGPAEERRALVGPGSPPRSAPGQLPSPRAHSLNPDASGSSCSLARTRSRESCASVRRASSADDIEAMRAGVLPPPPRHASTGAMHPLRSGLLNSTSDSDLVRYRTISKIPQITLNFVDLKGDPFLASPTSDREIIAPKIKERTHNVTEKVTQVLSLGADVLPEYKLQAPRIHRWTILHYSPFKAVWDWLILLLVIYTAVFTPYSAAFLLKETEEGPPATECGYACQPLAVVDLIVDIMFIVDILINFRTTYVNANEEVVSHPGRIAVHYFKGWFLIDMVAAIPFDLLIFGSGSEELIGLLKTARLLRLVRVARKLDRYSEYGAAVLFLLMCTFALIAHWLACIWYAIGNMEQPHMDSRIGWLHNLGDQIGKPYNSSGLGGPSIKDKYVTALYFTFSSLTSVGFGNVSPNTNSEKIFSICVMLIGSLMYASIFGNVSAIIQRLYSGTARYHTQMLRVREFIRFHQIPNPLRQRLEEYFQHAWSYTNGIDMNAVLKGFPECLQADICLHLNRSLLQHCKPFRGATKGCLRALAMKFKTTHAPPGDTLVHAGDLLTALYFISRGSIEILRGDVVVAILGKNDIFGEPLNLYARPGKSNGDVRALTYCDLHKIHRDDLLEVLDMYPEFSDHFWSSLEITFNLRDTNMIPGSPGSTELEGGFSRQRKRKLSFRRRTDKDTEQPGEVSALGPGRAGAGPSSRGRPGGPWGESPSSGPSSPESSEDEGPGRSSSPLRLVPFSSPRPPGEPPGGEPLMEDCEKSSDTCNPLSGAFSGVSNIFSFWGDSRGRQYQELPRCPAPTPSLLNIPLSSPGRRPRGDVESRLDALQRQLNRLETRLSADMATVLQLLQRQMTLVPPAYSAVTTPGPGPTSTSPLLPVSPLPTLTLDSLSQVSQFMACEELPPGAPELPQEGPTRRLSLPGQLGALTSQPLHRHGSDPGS
Sequence of Cytochrome P450 2C19 (P33261 whole entry): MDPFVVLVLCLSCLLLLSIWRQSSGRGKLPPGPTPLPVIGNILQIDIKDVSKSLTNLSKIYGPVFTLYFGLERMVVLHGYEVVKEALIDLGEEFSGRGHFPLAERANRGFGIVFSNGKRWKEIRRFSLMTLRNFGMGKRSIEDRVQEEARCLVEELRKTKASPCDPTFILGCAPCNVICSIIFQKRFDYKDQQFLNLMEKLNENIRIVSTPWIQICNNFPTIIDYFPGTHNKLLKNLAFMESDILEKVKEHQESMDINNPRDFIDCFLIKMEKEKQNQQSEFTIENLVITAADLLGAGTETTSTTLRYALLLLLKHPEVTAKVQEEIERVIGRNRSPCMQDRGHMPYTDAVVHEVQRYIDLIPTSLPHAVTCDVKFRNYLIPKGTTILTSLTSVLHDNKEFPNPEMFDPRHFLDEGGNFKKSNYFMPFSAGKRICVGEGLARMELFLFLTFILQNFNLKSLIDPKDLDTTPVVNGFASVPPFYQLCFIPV
Sequence of Cytochrome P450 3A4 (P08684 whole entry): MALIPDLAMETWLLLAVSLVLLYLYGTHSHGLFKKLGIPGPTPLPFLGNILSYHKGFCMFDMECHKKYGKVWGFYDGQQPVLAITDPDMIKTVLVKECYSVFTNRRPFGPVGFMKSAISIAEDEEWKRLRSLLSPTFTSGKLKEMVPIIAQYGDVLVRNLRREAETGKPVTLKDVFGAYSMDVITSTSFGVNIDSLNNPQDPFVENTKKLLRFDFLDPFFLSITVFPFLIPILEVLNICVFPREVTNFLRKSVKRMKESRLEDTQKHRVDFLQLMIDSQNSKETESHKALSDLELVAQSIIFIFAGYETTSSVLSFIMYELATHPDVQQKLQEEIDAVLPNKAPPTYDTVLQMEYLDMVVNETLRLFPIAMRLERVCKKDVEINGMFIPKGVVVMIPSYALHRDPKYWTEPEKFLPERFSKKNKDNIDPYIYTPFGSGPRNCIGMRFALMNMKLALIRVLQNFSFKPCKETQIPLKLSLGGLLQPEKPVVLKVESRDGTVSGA
Sequence of Cyclin-dependent kinase 1 (P06493 whole entry): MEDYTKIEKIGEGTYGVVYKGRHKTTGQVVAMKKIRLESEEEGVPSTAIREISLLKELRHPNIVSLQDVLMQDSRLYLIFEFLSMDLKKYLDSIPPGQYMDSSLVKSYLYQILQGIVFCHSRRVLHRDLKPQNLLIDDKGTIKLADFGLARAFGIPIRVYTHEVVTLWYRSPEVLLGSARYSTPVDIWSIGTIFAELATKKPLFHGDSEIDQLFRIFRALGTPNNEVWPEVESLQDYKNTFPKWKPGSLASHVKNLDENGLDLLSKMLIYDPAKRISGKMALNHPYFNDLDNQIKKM
Sequence of Cytochrome P450 2C9 (P11712 whole entry): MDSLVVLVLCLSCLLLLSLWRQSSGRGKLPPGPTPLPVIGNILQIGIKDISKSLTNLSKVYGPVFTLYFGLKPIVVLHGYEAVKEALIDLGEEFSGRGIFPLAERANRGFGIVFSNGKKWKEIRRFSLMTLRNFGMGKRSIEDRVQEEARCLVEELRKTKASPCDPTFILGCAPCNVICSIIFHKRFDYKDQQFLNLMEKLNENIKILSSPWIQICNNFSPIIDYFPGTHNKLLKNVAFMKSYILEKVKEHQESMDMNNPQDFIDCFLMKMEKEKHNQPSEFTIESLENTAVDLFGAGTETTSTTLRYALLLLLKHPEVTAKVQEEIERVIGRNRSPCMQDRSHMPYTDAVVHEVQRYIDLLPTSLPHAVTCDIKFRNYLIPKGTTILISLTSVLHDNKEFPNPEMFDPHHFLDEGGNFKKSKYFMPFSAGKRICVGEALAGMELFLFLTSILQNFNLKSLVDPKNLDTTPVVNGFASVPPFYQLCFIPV

As to `[2H]C([2H])([2H])NS(=O)(=O)c1ccc(Nc2ncc3c(n2)N([C@@H]2CCC[C@@]2(C)O)C(=O)C32CC2)cc1` (relative stereo), the “inhibition (INH)” value on Cytochrome P450 3A4, against Cytochrome P450 2C8, against Cytochrome P450 2D6, on Cytochrome P450 2C9, on Cytochrome P450 2B6 and at Cytochrome P450 2C19 was “Active” in each case. In addition, on Cytochrome P450 1A2, the “inhibition (INH)” value was “Active”. For the same compound, the predicted hepatic clearance at 1 µM in series [1] is below 8.33 mL/min/kg. Moreover, the QH in [2] is reported as above 100%. The Drug metabolism in series [3] was 54%; in series [4] it was 12%; in series [7], 23%; in [14] it was 71%; in series [16], 10%. Besides, the Stability in series [5] is given as 20%; in [11], 4.4%. In addition, the bioavailability in series [6] came out at 92%. Moreover, the remaining at 0.5 h, 5 µM in series [8] is 85%. The AUC at 24 h in series [9] came to 0.666 µM·h. Moreover, in series [10], the Vdss worked out at 3.2 L/kg. In [12], the metabolised at 0.5 h, 5 µM was 5%. Further, the IC50 in [13] worked out at 746 nM. The compound further returned a Cmax in [15] of 752 nM. On hERG (KCNH2), this compound gave an inhibition at 24 h, 10 µM of 16%. Also, the solubility in [17] is above 400 µg/mL.
In the case of `NS(=O)(=O)c1ccc(Nc2ncc3c(n2)N(C2CCCC2)C(=O)C32CC2)cc1`, the predicted hepatic clearance at 1 µM in [1] is 13.3 mL/min/kg. The IC50 in series [18] was found to be 4.9 nM; in series [19], 4 nM; in [22], 1200 nM; in series [13], 7600 nM. In addition, the Ratio IC50 was 245 in the series listed under Homo sapiens [20], 7 in the series filed under Homo sapiens [21], 5 in the series filed under Homo sapiens [23] and 250 in the series listed under Homo sapiens [24].

Values taken from ChEMBL document CHEMBL5126669, “Discovery of 5,7-Dihydro-6H-pyrrolo[2,3-d]pyrimidin-6-ones as Highly Selective CDK2 Inhibitors” (ACS Med Chem Lett, 2022).
